Measurements from BindingDB's records for PubMed 8301575 (Institut De Recherches Servier, 1994).

Experiments:
[1] = biological target: 5-hydroxytryptamine receptor 2A (Rattus norvegicus, UniProt P14842)
[2] = biological target: T1, 5-hydroxytryptamine receptor 2C (Sus scrofa, UniProt G7ZKZ7)
T1 sequence (G7ZKZ7 whole entry): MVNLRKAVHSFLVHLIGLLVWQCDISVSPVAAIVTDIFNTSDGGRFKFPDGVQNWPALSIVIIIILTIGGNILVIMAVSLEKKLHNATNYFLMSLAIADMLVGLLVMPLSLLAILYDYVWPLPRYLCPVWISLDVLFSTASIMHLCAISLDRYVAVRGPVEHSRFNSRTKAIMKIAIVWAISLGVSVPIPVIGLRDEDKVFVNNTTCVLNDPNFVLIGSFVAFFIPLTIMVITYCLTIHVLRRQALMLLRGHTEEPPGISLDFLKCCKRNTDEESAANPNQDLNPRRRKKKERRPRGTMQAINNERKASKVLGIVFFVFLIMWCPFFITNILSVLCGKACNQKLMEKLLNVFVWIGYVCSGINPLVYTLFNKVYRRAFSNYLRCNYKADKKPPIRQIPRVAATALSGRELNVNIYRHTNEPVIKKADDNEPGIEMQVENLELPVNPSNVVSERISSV

[3] = biological target: T2, 5-hydroxytryptamine receptor 3A (Rattus norvegicus, UniProt P35563)
T2 sequence (P35563 whole entry): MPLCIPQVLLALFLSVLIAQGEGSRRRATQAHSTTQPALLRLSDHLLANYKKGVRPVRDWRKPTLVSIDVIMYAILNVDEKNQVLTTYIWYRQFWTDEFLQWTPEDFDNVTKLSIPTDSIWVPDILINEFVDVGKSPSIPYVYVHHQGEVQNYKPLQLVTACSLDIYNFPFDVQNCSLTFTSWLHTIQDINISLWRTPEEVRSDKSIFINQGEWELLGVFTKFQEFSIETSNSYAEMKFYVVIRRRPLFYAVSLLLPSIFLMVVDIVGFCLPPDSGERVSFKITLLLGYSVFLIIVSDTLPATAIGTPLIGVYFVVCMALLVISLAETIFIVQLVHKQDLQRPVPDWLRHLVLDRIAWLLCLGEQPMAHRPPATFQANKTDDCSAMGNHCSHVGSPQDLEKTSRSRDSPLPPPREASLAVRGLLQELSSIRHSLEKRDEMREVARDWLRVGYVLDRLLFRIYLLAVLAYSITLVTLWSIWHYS

[4] = biological target: 5-hydroxytryptamine receptor 1B (Rattus norvegicus, UniProt P28564)
[5] = biological target: T3, 5-hydroxytryptamine receptor 1A (Rattus norvegicus, UniProt P19327)
T3 sequence (P19327 whole entry): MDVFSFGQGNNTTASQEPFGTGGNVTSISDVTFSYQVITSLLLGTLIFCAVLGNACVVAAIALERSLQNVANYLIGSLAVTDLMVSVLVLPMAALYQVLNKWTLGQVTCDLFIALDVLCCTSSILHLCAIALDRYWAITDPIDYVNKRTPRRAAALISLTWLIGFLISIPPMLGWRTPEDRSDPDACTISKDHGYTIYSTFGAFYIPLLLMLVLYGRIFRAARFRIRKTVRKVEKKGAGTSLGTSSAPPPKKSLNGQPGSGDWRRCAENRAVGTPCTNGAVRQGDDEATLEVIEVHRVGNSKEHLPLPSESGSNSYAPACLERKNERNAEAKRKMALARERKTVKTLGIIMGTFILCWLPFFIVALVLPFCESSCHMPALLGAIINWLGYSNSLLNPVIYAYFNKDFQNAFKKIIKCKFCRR

Chain of 5-hydroxytryptamine receptor 2A (P14842 whole entry): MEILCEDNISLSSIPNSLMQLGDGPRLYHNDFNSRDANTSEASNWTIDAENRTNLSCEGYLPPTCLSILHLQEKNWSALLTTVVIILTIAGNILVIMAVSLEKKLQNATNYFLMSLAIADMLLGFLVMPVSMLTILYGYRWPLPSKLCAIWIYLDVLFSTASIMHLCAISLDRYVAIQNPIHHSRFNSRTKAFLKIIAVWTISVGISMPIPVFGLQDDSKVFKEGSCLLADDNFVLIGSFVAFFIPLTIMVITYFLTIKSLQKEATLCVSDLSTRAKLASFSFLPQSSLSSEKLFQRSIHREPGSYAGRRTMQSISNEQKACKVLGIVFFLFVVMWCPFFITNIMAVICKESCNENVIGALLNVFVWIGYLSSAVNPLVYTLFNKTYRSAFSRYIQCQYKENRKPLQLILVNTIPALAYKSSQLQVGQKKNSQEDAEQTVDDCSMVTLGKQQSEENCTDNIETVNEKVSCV
Chain of 5-hydroxytryptamine receptor 1B (P28564 whole entry): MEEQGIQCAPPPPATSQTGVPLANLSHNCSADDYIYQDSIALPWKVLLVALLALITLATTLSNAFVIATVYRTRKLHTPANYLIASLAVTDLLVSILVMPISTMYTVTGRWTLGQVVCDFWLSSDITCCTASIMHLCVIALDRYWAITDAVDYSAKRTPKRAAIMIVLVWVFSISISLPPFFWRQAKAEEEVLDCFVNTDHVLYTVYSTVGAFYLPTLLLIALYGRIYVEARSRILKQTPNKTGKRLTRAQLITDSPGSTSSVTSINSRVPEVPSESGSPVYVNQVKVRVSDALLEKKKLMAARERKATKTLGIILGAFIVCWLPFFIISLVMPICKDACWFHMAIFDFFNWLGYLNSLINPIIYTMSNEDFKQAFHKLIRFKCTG

Structure (SMILES)	Ki [1]	Ki [2]	Ki [3]	Ki [4]	Ki [5]
c1ccc2c(c1)CC(N1CCN(c3cccc4c3OCCO4)CC1)C2 [NSC_132787]	214 nM	537 nM	1000 nM	1740 nM	
CC(C)(C)NCC(O)COc1cccc2c1SCCC2 (single isomer, unassigned; (-)) [TERTATOLOL(-)]	1450 nM	363 nM	1000 nM	182 nM	8.31 nM
O=C1CC2(CCCC2)CC(=O)N1CCNCC1COc2ccccc2O1 (configuration not stated) [CAS_124756-23-6]	1620 nM	427 nM		4570 nM	1.25 nM
COc1ccccc1N1CCN(CCCCN2C(=O)c3ccccc3C2=O)CC1 [2-{4-[4-(2-Methoxy-phenyl)-piperazin-1-yl]-butyl}-isoindole-1,3-dione]	646 nM	776 nM		1070 nM	
COC(=O)c1cc2c(N3CCN(CCCCN4C(=O)c5ccccc5S4(=O)=O)CC3)cccc2[nH]1 [CAS_141533-35-9]					1.58 nM
C=CCc1ccccc1OC[C@@H](O)CNC(C)C [ALPRENOLOL,(-)]	5010 nM	4470 nM		100 nM	
c1cc2c(c(N3CCNCC3)c1)OCCO2 [1-(2,3-Dihydro-benzo[1,4]dioxin-5-yl)-piperazine]	1380 nM	170 nM	1000 nM	53.7 nM	9.33 nM
O=C(CCCN1CCC2(CC1)C(=O)NCN2c1ccccc1)c1ccc(F)cc1 [8-[4-(4-fluorophenyl)-4-oxidanylidene-butyl]-1-phenyl-1,3,8-triazaspiro[4.5]decan-4-one]		977 nM		> 10000 nM	115 nM
COc1ccccc1N1CCN(C[C@@H](C(=O)NC(C)(C)C)c2ccccc2)CC1 [WAY 100135]	3470 nM	3470 nM	1000 nM	> 10000 nM	32.4 nM
c1ccc2c(c1)CC2CCN1CCN(c2cccc3c2OCCO3)CC1 (configuration not stated) [NSC_182595]	141 nM	151 nM	372 nM	603 nM	0.61 nM
COc1ccccc1N1CCN(CCN2C(=O)CC3(CCCC3)CC2=O)CC1	1740 nM	234 nM	1000 nM	> 10000 nM	
c1ccc2c(c1)CCC2CCN1CCN(c2cccc3c2OCCO3)CC1 (configuration not stated) [CAS_182596]	191 nM	115 nM	53.7 nM	417 nM	1.51 nM
